{"source": "patent US20070105960A1", "about": "“Treatment of learning disabilities and motor skills disorder with norepinephrine reuptake inhibitors” (ELI LILLY AND COMPANY, priority 2003, published 2007)", "key": {"rats [1]": {"test_system": "rats", "assay": "8-arm radial maze delayed non-match to sample task", "format": "in vivo, rat", "conditions": "FIG. 1", "description": "(§1) The effects of atomoxetine on learning and memory in rats are evaluated in two different animal models. In an 8-arm radial maze delayed non-match to sample (DNMTS) task, well-trained rats recall where they received rewards during an information phase in order to obtain the remaining rewards during a retention phase conducted after a delay of several hours. Performance in this task is influenced by the administration of putative amnesics and cognitive enhancers (Staubli U, Rogers G, Lynch G (1994) Facilitation of glutamate receptors enhances memory. Proc Natl Acad Sci USA 91: 777-781; Pilcher J J, Sessions G R, McBride S A (1997) Scopolamine impairs spatial working memory in the radial maze: an analysis by error type and arm choice. Pharmacol Biochem Behav 58: 449-459; Pussinen R, Sirvio J (1999) Effects of D-cycloserine, a positive modulator of N-methyl-D-aspartate receptors, and ST 587, a putative alpha-1 adrenergic agonist, individually and in combination, on the non-delayed and delayed foraging behaviour of rats assessed in the radial arm maze. J Psychopharinacol 13:171-179; Wolff M. C., Leander, J. David (2003) A comparison of the effects of antipsychotics on a delayed radial maze task in the rat. Psychopharmacolology 168:410-416). […]"}, "rats [2]": {"test_system": "rats", "assay": "Object recognition test", "format": "in vivo, rat", "conditions": "three hour delay, 60 minutes pre-treatment, FIG. 2", "description": "as §1, with “maze.” for “maze. J Psychopharinacol 13:171-179; Wolff M. C., Leander, J. David (2003) A comparison of the effects of antipsychotics on a delayed radial maze task in the rat. Psychopharmacolology 168:410-416).”\nDuring the testing phase of the experiment, rats are administered appropriate vehicle or drug (N=9/dose) and placed back in their home cage for the pre-treatment period (60 minutes). […] The time spent sniffing (nose <2.5 cm from the object), gnawing, or touching the objects with the front paws is recorded. […]"}}, "note": "“Also recorded” adds a separate entry of the source."}
{"smiles": "CNCC[C@@H](Oc1ccccc1C)c1ccccc1", "note": "[atomoxetine, (R)-(−)-N-methyl-3-(2-methyl-phenoxy)-3-phenylpropylamine]", "values": [{"measurement": "errors in the 8 arm radial maze retention paradigm", "setting": "rats [1]", "value": "reduction of errors"}, {"measurement": "learning and memory performance in the 8 arm radial maze", "setting": "rats [1]; oral, 7 hour delay", "value": "improves learning and memory performance"}, {"measurement": "object recognition", "setting": "rats [2]", "value": "improves object recognition; also recorded: improvement of object recognition"}]}
